Assay results reported in patent US12622910B2, “Inhibitors of Bruton's tyrosine kinase and methods of their use” (Janssen Pharmaceutica NV, priority 2021, dated 2026).

Assay: Phase 1 first-in-human study, safety (TEAEs)
Format: in vivo
From the text: Study Participants—Volunteers aged 18-58 years, with a body mass index (BMI) of 18-30 kg/m^2, body weight ≥50 kg, and who were considered healthy based on medical history, physical examination, clinical laboratory evaluation, and 12-lead electrocardiogram (ECG) were enrolled in this study. Females were required to be surgically sterile or postmenopausal. Key exclusion criteria were history of, or current, clinically significant medical illness and history of malignancy within 5 years.
Study Design—This phase 1, randomized, double-blind, placebo-controlled, single-center study (NCT03607513; EudraCT 2018-000428-32) was conducted between July 2018 and August 2019 at the Janssen Clinical Pharmacology Unit in Merksem, Belgium.The study comprised two distinct parts; Part 1 examined SAD of compound of Formula (III) and Part 2 assessed MAD of compound of Formula (III).
Safety, tolerability, PK, and BTKO were assessed for six doses of compound of Formula (III) oral solution (4, 12, 36, 100, 200, 400 mg) in participants under fasted conditions. The SAD part comprised 10 cohorts of 8 participants each (FIG. 1). In each cohort receiving compound of Formula (III) oral solution (Cohorts 1-9), 6 participants were randomized to receive compound of Formula (III) and 2 to receive placebo. All participants in Cohort 10 received compound of Formula (III) as an oral capsule. All 10 cohorts included 2 sentinel participants who were dosed ˜24 hours prior to the rest of the cohort. In cohorts receiving compound of Formula (III) oral solution, 1 sentinel participant received compound of Formula (III) and the other received placebo.
Six male escalating dose cohorts received a single oral dose of 4, 12, 36, 100, 200, 400 mg compound of Formula (III) or placebo solution under fasted conditions. Gender effects were assessed in 2 female cohorts whose participants received either a 36 or 100 mg dose of compound of Formula (III) or placebo as an oral solution under fasted conditions. Food effects were evaluated in a male cohort receiving compound of Formula (III) 100 mg or placebo as an oral solution after a high-fat breakfast.
Safety, tolerability, and PK of a solid dose formulation of compound of Formula (III) were assessed in an additional male cohort (Cohort 10) that received 3×35 mg (105 mg) of compound of Formula (III) in the fasted state. Since all the participants received the same dose of compound of Formula (III), this cohort was not blinded.
Safety, tolerability, PK, and BTKO following multiple compound of Formula (III) doses were evaluated in 3 dose escalation cohorts with a total of 18 participants (males: 9, females: 9) receiving active study drug. In each cohort, 3 males and 3 females were randomized to receive 36 mg once-daily (QD), 100 mg QD, or 200 mg QD compound of Formula (III) oral solution and 3 participants (males: 2; female: 1) to receive placebo. Two male participants in each cohort served as sentinel participants: one received compound of Formula (III) and other received placebo ˜48 hours prior to other participants in the cohort. All safety and tolerability data (through the follow-up visit), PK data (through at least 24 hours after last dose administration), and all available PD data were reviewed from each cohort before a decision was made to dose escalate.
Safety—Safety evaluations were based upon the type, incidence, and severity of treatment-emergent adverse events (TEAEs) reported throughout the study, and concomitant medication reporting, clinical laboratory tests, physical examinations, vital sign measurements, and ECGs assessed at pre-defined time points. The TEAEs and serious TEAEs were coded using the Medical Dictionary for Regulatory Activities (MedDRA Version 21.0) and summarized by system-organ class (SOC) and preferred terms.

C=CC(=O)N[C@H]1CCC[C@H]1NC(=O)c1sc2nccc3c2c1NC(=O)N3c1cnc(CC(C)C)cc1C (atropisomer, axis not shown) [compound of Formula (III), N-((1R,2S)-2-Acrylamidocyclopentyl)-5-(S)-(6-isobutyl-4-methylpyridin-3-yl)-4-oxo-4,5-dihydro-3H-1-thia-3,5,8-triazaacenaphthylene-2-carboxamide]
mild to moderate: severity of TEAEs (Parts 1 and 2)
2(3.3): Administration site irritation, n (%) (Part 1, total N = 60)
2: Patients with ≥1 TEAEs, n (%) (Part 1, 4 mg fasted) | Headache, n (%) (Part 1, 12 mg fasted) | Headache, n (%) (Part 1, 36 mg fasted)
1 (16.7): Abdominal discomfort, n (%) (Part 2, 36 mg) | Administration site irritation, n (%) (Part 2, 36 mg) | Back pain, n (%) (Part 2, 36 mg) | Flatulence, n (%) (Part 2, 36 mg) | Injection site reaction, n (%) (Part 2, 36 mg) | Regurgitation, n (%) (Part 2, 36 mg) | Skin reaction, n (%) (Part 2, 36 mg) | Abdominal discomfort, n (%) (Part 2, 100 mg) | Diarrhea, n (%) (Part 2, 100 mg) | Hot flush, n (%) (Part 2, 100 mg) | Injection site reaction, n (%) (Part 2, 100 mg) | Myalgia, n (%) (Part 2, 100 mg) | Somnolence, n (%) (Part 2, 100 mg) | Vessel puncture site hematoma, n (%) (Part 2, 100 mg) | Abdominal pain, n (%) (Part 2, 200 mg) | Dizziness, n (%) (Part 2, 200 mg) | Fatigue, n (%) (Part 2, 200 mg) | Headache, n (%) (Part 2, 200 mg) | Hot flush, n (%) (Part 2, 200 mg) | Regurgitation, n (%) (Part 2, 200 mg) | Skin reaction, n (%) (Part 2, 200 mg) | Vision blurred, n (%) (Part 2, 200 mg) | Back pain, n (%) (Part 2, total N = 18)
4: Patients with ≥1 TEAEs, n (%) (Part 1, 36 mg fasted) | Patients with ≥1 TEAEs, n (%) (Part 1, 100 mg fasted) | Patients with ≥1 TEAEs, n (%) (Part 1, 200 mg fasted)
5 (83.3): Patients with ≥1 TEAEs, n (%) (Part 2, 100 mg) | Patients with ≥1 TEAEs, n (%) (Part 2, 200 mg)
0: Administration site irritation, n (%) (Part 1, 12 mg fasted) | Administration site irritation, n (%) (Part 1, 36 mg fasted) | Administration site irritation, n (%) (Part 1, 100 mg fasted) | Headache, n (%) (Part 1, 100 mg fasted) | Administration site irritation, n (%) (Part 1, 100 mg fed) | Administration site irritation, n (%) (Part 1, 105 mg solid) | Administration site irritation, n (%) (Part 1, 400 mg fasted) | Headache, n (%) (Part 1, 400 mg fasted) | Abdominal pain, n (%) (Part 2, 36 mg) | Abnormal dreams, n (%) (Part 2, 36 mg) | Cough, n (%) (Part 2, 36 mg) | Dehydration, n (%) (Part 2, 36 mg) | Diarrhea, n (%) (Part 2, 36 mg) | Dizziness, n (%) (Part 2, 36 mg) | Dysgeusia, n (%) (Part 2, 36 mg) | Fatigue, n (%) (Part 2, 36 mg) | Headache, n (%) (Part 2, 36 mg) | Hot flush, n (%) (Part 2, 36 mg) | Increased bronchial secretion, n (%) (Part 2, 36 mg) | Injection site hematoma, n (%) (Part 2, 36 mg) | Lipase increased, n (%) (Part 2, 36 mg) | Myalgia, n (%) (Part 2, 36 mg) | Nasopharyngitis, n (%) (Part 2, 36 mg) | Nausea, n (%) (Part 2, 36 mg) | Oral dysaesthesia, n (%) (Part 2, 36 mg) | Oropharyngeal pain, n (%) (Part 2, 36 mg) | Skin irritation, n (%) (Part 2, 36 mg) | Somnolence, n (%) (Part 2, 36 mg) | Vertigo, n (%) (Part 2, 36 mg) | Vessel puncture site hematoma, n (%) (Part 2, 36 mg) | Vision blurred, n (%) (Part 2, 36 mg) | Abdominal pain, n (%) (Part 2, 100 mg) | Abnormal dreams, n (%) (Part 2, 100 mg) | Back pain, n (%) (Part 2, 100 mg) | Cough, n (%) (Part 2, 100 mg) | Dehydration, n (%) (Part 2, 100 mg) | Dizziness, n (%) (Part 2, 100 mg) | Dysgeusia, n (%) (Part 2, 100 mg) | Fatigue, n (%) (Part 2, 100 mg) | Flatulence, n (%) (Part 2, 100 mg) | Headache, n (%) (Part 2, 100 mg) | Increased bronchial secretion, n (%) (Part 2, 100 mg) | Lipase increased, n (%) (Part 2, 100 mg) | Nasopharyngitis, n (%) (Part 2, 100 mg) | Nausea, n (%) (Part 2, 100 mg) | Oral dysaesthesia, n (%) (Part 2, 100 mg) | Oropharyngeal pain, n (%) (Part 2, 100 mg) | Paresthesia, n (%) (Part 2, 100 mg) | Regurgitation, n (%) (Part 2, 100 mg) | Skin irritation, n (%) (Part 2, 100 mg) | Skin reaction, n (%) (Part 2, 100 mg) | Vertigo, n (%) (Part 2, 100 mg) | Vision blurred, n (%) (Part 2, 100 mg) | Abdominal discomfort, n (%) (Part 2, 200 mg) | Abnormal dreams, n (%) (Part 2, 200 mg) | Administration site irritation, n (%) (Part 2, 200 mg) | Back pain, n (%) (Part 2, 200 mg) | Cough, n (%) (Part 2, 200 mg) | Dehydration, n (%) (Part 2, 200 mg) | Diarrhea, n (%) (Part 2, 200 mg) | Dysgeusia, n (%) (Part 2, 200 mg) | Flatulence, n (%) (Part 2, 200 mg) | Increased bronchial secretion, n (%) (Part 2, 200 mg) | Injection site hematoma, n (%) (Part 2, 200 mg) | Injection site reaction, n (%) (Part 2, 200 mg) | Lipase increased, n (%) (Part 2, 200 mg) | Myalgia, n (%) (Part 2, 200 mg) | Nasopharyngitis, n (%) (Part 2, 200 mg) | Nausea, n (%) (Part 2, 200 mg) | Oral dysaesthesia, n (%) (Part 2, 200 mg) | Oropharyngeal pain, n (%) (Part 2, 200 mg) | Paresthesia, n (%) (Part 2, 200 mg) | Skin irritation, n (%) (Part 2, 200 mg) | Somnolence, n (%) (Part 2, 200 mg) | Vertigo, n (%) (Part 2, 200 mg) | Vessel puncture site hematoma, n (%) (Part 2, 200 mg) | Abnormal dreams, n (%) (Part 2, total N = 18) | Cough, n (%) (Part 2, total N = 18) | Dehydration, n (%) (Part 2, total N = 18) | Dysgeusia, n (%) (Part 2, total N = 18) | Increased bronchial secretion, n (%) (Part 2, total N = 18) | Lipase increased, n (%) (Part 2, total N = 18) | Myalgia, n (%) (Part 2, total N = 18) | Nasopharyngitis, n (%) (Part 2, total N = 18) | Nausea, n (%) (Part 2, total N = 18) | Oropharyngeal pain, n (%) (Part 2, total N = 18) | Skin irritation, n (%) (Part 2, total N = 18) | Vertigo, n (%) (Part 2, total N = 18)
4 (66.7): Patients with ≥1 TEAEs, n (%) (Part 2, 36 mg)
No serious TEAEs: serious TEAEs (Parts 1 and 2)
3: Patients with ≥1 TEAEs, n (%) (Part 1, 12 mg fasted) | Patients with ≥1 TEAEs, n (%) (Part 1, 105 mg solid) | Patients with ≥1 TEAEs, n (%) (Part 1, 400 mg fasted)
13.3%: headache, incidence (Part 1, all treated)
2 (33.3): Paresthesia, n (%) (Part 2, 36 mg) | Administration site irritation, n (%) (Part 2, 100 mg) | Injection site hematoma, n (%) (Part 2, 100 mg)
2 (11.1): Abdominal discomfort, n (%) (Part 2, total N = 18) | Hot flush, n (%) (Part 2, total N = 18) | Injection site hematoma, n (%) (Part 2, total N = 18) | Injection site reaction, n (%) (Part 2, total N = 18) | Paresthesia, n (%) (Part 2, total N = 18) | Regurgitation, n (%) (Part 2, total N = 18) | Skin reaction, n (%) (Part 2, total N = 18)
1 (5.6): Abdominal pain, n (%) (Part 2, total N = 18) | Diarrhea, n (%) (Part 2, total N = 18) | Dizziness, n (%) (Part 2, total N = 18) | Fatigue, n (%) (Part 2, total N = 18) | Flatulence, n (%) (Part 2, total N = 18) | Headache, n (%) (Part 2, total N = 18) | Somnolence, n (%) (Part 2, total N = 18) | Vessel puncture site hematoma, n (%) (Part 2, total N = 18) | Vision blurred, n (%) (Part 2, total N = 18)
11.1%: abdominal discomfort, back pain, hot flush, paresthesia, regurgitation, skin reaction: incidence of each (Part 2, all treated [2/18])
8 (13.3): Headache, n (%) (Part 1, total N = 60)
3 (16.7): Administration site irritation, n (%) (Part 2, total N = 18)
5%: nasal congestion, incidence (Part 1, all treated)
1: Administration site irritation, n (%) (Part 1, 4 mg fasted) | Headache, n (%) (Part 1, 4 mg fasted) | Headache, n (%) (Part 1, 100 mg fed) | Patients with ≥1 TEAEs, n (%) (Part 1, 100 mg fed) | Headache, n (%) (Part 1, 105 mg solid) | Administration site irritation, n (%) (Part 1, 200 mg fasted) | Headache, n (%) (Part 1, 200 mg fasted) | participants discontinued due to a TEAE (mild transaminases increased) (Part 2, 200 mg group, after 8 days)
16.7%: administration site irritation, incidence (Part 2, all treated [3/18])
